Assay: Storage stability at room temperature of rocuronium bromide samples (related substances by HPLC)
Assay type: physicochemical
Settings: for Impurity A, substances involved (HPLC) / Impurity C, substances involved (HPLC) / Total impurities, substances involved (HPLC) / Single unknown impurity, substances involved (HPLC): room temperature storage

## C=CC[N+]1([C@H]2C[C@H]3[C@@H]4CC[C@H]5C[C@H](O)[C@@H](N6CCOCC6)C[C@]5(C)[C@H]4CC[C@]3(C)[C@H]2OC(C)=O)CCCC1 [rocuronium bromide]
Moisture 4% or more, storage period of about 10 days at room temperature
  hydrolyzed impurities after storage (versus USP33 limits): out of limits
Moisture controlled to about 0.5%, storage period of one month at room temperature
  levels of impurities after storage: substantially unchanged
Purified by the method of the invention, moisture 4% or less, preferably 0.5% or less, one month at room temperature
  level of impurities after storage: substantially unchanged
Sample moisture 0.5%, Day 0
  Impurity A, substances involved (HPLC): 0.02%
  Impurity C, substances involved (HPLC): 0.06%
  Total impurities, substances involved (HPLC): 0.08%
Sample moisture 0.5%, Day 10
  Impurity A, substances involved (HPLC): 0.02%
  Impurity C, substances involved (HPLC): 0.06%
  Total impurities, substances involved (HPLC): 0.08%
Sample moisture 0.5%, Day 20
  Impurity A, substances involved (HPLC): 0.03%
  Impurity C, substances involved (HPLC): 0.06%
  Total impurities, substances involved (HPLC): 0.09%
Sample moisture 0.5%, Day 30
  Impurity A, substances involved (HPLC): 0.03%
  Impurity C, substances involved (HPLC): 0.06%
  Total impurities, substances involved (HPLC): 0.09%
Sample moisture 4.5%, Day 0
  Impurity A, substances involved (HPLC): 0.02%
  Impurity C, substances involved (HPLC): 0.06%
  Total impurities, substances involved (HPLC): 0.08%
Sample moisture 4.5%, Day 10
  Impurity A, substances involved (HPLC): 0.25%
  Impurity C, substances involved (HPLC): 0.36%
  Single unknown impurity, substances involved (HPLC): 0.12%
  Total impurities, substances involved (HPLC): 0.73%
Sample moisture 4.5%, Day 20
  Impurity A, substances involved (HPLC): 0.30%
  Impurity C, substances involved (HPLC): 0.40%
  Single unknown impurity, substances involved (HPLC): 0.20%
  Total impurities, substances involved (HPLC): 0.90%
Sample moisture 4.5%, Day 30
  Impurity A, substances involved (HPLC): 0.35%
  Impurity C, substances involved (HPLC): 0.50%
  Single unknown impurity, substances involved (HPLC): 0.20%
  Total impurities, substances involved (HPLC): 1.05%

Source: patent publication US9024013B2, “Method for purifying rocuronium bromide” (Zhejiang Huahai Pharmaceutical Co., Ltd, priority 2011, dated 2015)
